{
  "source": "patent US5214165A",
  "about": "“Compounds useful as intermediates in the synthesis of shikimic acid derivatives” (Imperial Chemical Industries PLC, priority 1989, dated 1993)",
  "key": {"E. coli K12 [1]": {"tested_on": "E. coli K12", "experiment": "interaction with sulphamethoxazole, chequerboard titration", "type": "cell-based", "procedure": "(§1) 3) The interaction of 6-fluoroshikimate (racemic mixture) with a representative sulphonamide (sulphamethoxazole) was tested using both a disc approximation method and chequerboard titration."}, "E. coli K12 [2]": {"tested_on": "E. coli K12", "experiment": "interaction with sulphamethoxazole, disc approximation method", "type": "cell-based", "procedure": "as §1"}, "Klebsiella pneumoniae [3]": {"tested_on": "Klebsiella pneumoniae", "experiment": "interaction with sulphamethoxazole, disc approximation method", "type": "cell-based", "procedure": "as §1"}, "Enterobacter cloacae [4]": {"tested_on": "Enterobacter cloacae", "experiment": "interaction with sulphamethoxazole, disc approximation method", "type": "cell-based", "procedure": "as §1"}, "carrot cells [5]": {"tested_on": "carrot cells", "experiment": "standard carrot cell test for herbicidal activity", "type": "cell-based", "conditions": "carrot cells in liquid culture, shake flasks, 25° C.", "procedure": "5) In a standard test for herbicidal activity carrot cells were grown in shake flasks at 25° C. in liquid culture (Murashige and Skoog media with 0.2 mg/liter of kinetin and 0.1 mg/liter of 2.4 dichlorophenoxyacetic acid). The growth of cells was measured and an IC50 value obtained for compounds which were added in water."}, "Bacillus subtilis": {"tested_on": "Bacillus subtilis", "experiment": "test compound in agar method, MIC", "type": "cell-based", "conditions": "glucose agar, 16 hours at 37° C., read-out: MIC (minimum inhibitory concentration)", "procedure": "(§2) 1) Antimicrobial activity was assessed in vitro using a disc diffusion method and a method wherein the test compound was in agar. Both methods employed the use of Davis and Mingioli (J. Bact (1950) 60 17-28) glucose agar.\n(§3) ii) The \"test compound in agar\" method studied 6-α-fluoroshikimate at various final concentration in the agar (i.e. between 0 and 500 μg/ml) to obtain MIC (minimum inhibitory concentration) values for nine different bacterial cultures. Cultures were grown in Davis and Mingioli broth for 16 hours at 37° C. and diluted in fresh Davis and Mingioli broth to give 10^6 cells/ml. 1 μl volume of each culture was applied to the surface of each agar plate containing 6-α-fluoroshikimate and the plates were then incubated for 16 hours at 37° C. before each inoculation spot was visually assessed for growth. Using this technique the following results were observed: […]"}, "Serratia marcescens": {"tested_on": "Serratia marcescens", "experiment": "test compound in agar method, MIC", "type": "cell-based", "conditions": "glucose agar, 16 hours at 37° C., read-out: MIC (minimum inhibitory concentration)", "procedure": "as §2, §3"}, "[6]": {"tested_on": "Pseudomonas aeruginosa 799/wt", "experiment": "test compound in agar method, MIC", "type": "cell-based", "conditions": "glucose agar, 16 hours at 37° C., read-out: MIC (minimum inhibitory concentration)", "procedure": "as §2, §3"}, "[7]": {"tested_on": "Klebsiella pneumoniae ATCC 25304", "experiment": "test compound in agar method, MIC", "type": "cell-based", "conditions": "ATCC25304, glucose agar, 16 hours at 37° C., read-out: MIC (minimum inhibitory concentration)", "procedure": "as §2, §3"}, "Klebsiella pneumoniae [8]": {"tested_on": "Klebsiella pneumoniae", "experiment": "test compound in agar method, MIC", "type": "cell-based", "conditions": "glucose agar, 16 hours at 37° C., read-out: MIC (minimum inhibitory concentration)", "procedure": "as §2, §3"}, "Bacillus licheniformis": {"tested_on": "Bacillus licheniformis", "experiment": "test compound in agar method, MIC", "type": "cell-based", "conditions": "glucose agar, 16 hours at 37° C., read-out: MIC (minimum inhibitory concentration)", "procedure": "as §2, §3"}, "Enterobacter cloacae [9]": {"tested_on": "Enterobacter cloacae", "experiment": "test compound in agar method, MIC", "type": "cell-based", "conditions": "glucose agar, 16 hours at 37° C., read-out: MIC (minimum inhibitory concentration)", "procedure": "as §2, §3"}, "E. coli. N99": {"tested_on": "E. coli. N99", "experiment": "test compound in agar method, MIC", "type": "cell-based", "conditions": "Escherichia coli, glucose agar, 16 hours at 37° C., read-out: MIC (minimum inhibitory concentration)", "procedure": "as §2, §3"}, "E. coli. B": {"tested_on": "E. coli. B", "experiment": "test compound in agar method, MIC", "type": "cell-based", "conditions": "Escherichia coli, glucose agar, 16 hours at 37° C., read-out: MIC (minimum inhibitory concentration)", "procedure": "as §2, §3"}, "E. coli N99 [10]": {"tested_on": "E. coli N99", "experiment": "mouse protection test", "type": "in vivo", "set-up": "unit not given beside the values", "conditions": "mice", "procedure": "4) The in vivo efficacy of the fluoroshikimate was determined by the use of a mouse protection test. Male mice (18-20 g) were inoculated intraperitoneally with ten times the previously determined LD50 for E. coli N99 in 0.4 ml of hog gastric mucin (12%). Immediately after infection the mice were dosed with 0.2 ml of test compound either subcutaneously, per os or intraperitoneally. Based on the number of survivors at day 4 post infection, PD50 values were calculated by LOGIT analysis."}, "S. aureus 601055": {"tested_on": "S. aureus 601055", "experiment": "mouse protection test", "type": "in vivo", "set-up": "unit not given beside the values", "conditions": "mice"}, "E. coli N99 [11]": {"tested_on": "E. coli N99", "experiment": "disc diffusion antibacterial activity, zones of inhibition", "type": "cell-based", "conditions": "Escherichia coli; for zone of inhibition at 1.5 µg/disc: 1.5 μg applied on to disc", "procedure": "as §2\ni) The disc diffusion method used an overnight culture of E. coli N99 in Davis and Mingioli broth as an ioculum for the agar (e.g. 500 μl/100 ml agar). Test compounds were dissolved in distilled water and placed on to a 6 mm diameter disc which had just been applied to the agar surface. The plates were then incubated for 16 hours at 37° C. Using this method the following zones of inhibition were observed."}, "S. dublin 369001": {"tested_on": "S. dublin 369001", "experiment": "mouse protection test", "type": "in vivo", "set-up": "unit not given beside the values", "conditions": "mice"}, "E. coli 341094": {"tested_on": "E. coli 341094", "experiment": "mouse protection test", "type": "in vivo", "set-up": "unit not given beside the values", "conditions": "mice"}, "E. coli N99 [12]": {"tested_on": "E. coli N99", "experiment": "reversal studies of growth inhibition by 6α-fluoroshikimate", "type": "cell-based", "conditions": "in presence of 6α-fluoroshikimate; for Effect on the E. coli N99 inhibited growth: agent (each) at 100.0 μg/ml final well concentration, result in words", "procedure": "2) Reversal studies were performed by adding agents to an E. coli N99 (Davis and Mingioli broth) 10^6 cells/ml. suspension in the presence of 6α-fluoroshikimate and the bacterial growth assessed by the use of a spectrophotometer (Absorbance 540 nm)\nInhibition of bacterial growth was reversed by paraaminobenzoic acid (PABP) but degrees of counter reversion were seen after the addition of aromatic amino acid types. Using this technique the following results were observed: […]"}, "carrot cells [13]": {"tested_on": "carrot cells", "conditions": "well-known herbicide, in words; cited from earlier work"}, "[14]": {"conditions": "16 hours at 37° C. (α: hazy zone), read-out: mm diameter zones of inhibition vs. E. coli N99"}},
  "note": "Where two headings read alike, the source gives them in different places.",
  "data": [
    {"smiles": "O=C(O)C1=CC(O)C(O)C(O)C1F", "note": "(racemic) [6-fluoroshikimate (racemic mixture)]", "values": [
      {"measurement": "synergistic interaction with sulphamethoxazole", "setting": "E. coli K12 [1]", "value": "synergistic interaction was confirmed"},
      {"measurement": "synergistic interaction with sulphamethoxazole", "setting": "E. coli K12 [2]", "value": "synergistic interaction"},
      {"measurement": "synergistic interaction with sulphamethoxazole", "setting": "Klebsiella pneumoniae [3]", "value": "synergistic interaction"},
      {"measurement": "synergistic interaction with sulphamethoxazole", "setting": "Enterobacter cloacae [4]", "value": "synergistic interaction"},
      {"measurement": "IC50 (growth of carrot cells)", "setting": "carrot cells [5]", "value": 1.5, "unit": "μ/ml"}
    ]},
    {"smiles": "O=C(O)C1=C[C@@H](O)[C@@H](O)[C@H](O)[C@H]1F", "note": "[6-α-fluoroshikimate, (3R,4R,5S,6S)6-α-Fluoroshikimic acid]", "values": [
      {"measurement": "MIC", "setting": "Bacillus subtilis", "value": 50, "unit": "µg/mL"},
      {"measurement": "MIC", "setting": "Serratia marcescens", "value": "> 500", "unit": "µg/mL"},
      {"measurement": "MIC", "setting": "[6]", "value": "> 500", "unit": "µg/mL"},
      {"measurement": "MIC", "setting": "[7]", "value": 1, "unit": "µg/mL"},
      {"measurement": "MIC", "setting": "Klebsiella pneumoniae [8]", "value": 5, "unit": "µg/mL"},
      {"measurement": "MIC", "setting": "Bacillus licheniformis", "value": "> 500", "unit": "µg/mL"},
      {"measurement": "MIC", "setting": "Enterobacter cloacae [9]", "value": 50, "unit": "µg/mL"},
      {"measurement": "MIC", "setting": "E. coli. N99", "value": 0.1, "unit": "µg/mL"},
      {"measurement": "MIC", "setting": "E. coli. B", "value": 1, "unit": "µg/mL"},
      {"measurement": "PD50 (day 4)", "setting": "E. coli N99 [10]; intraperitoneal", "value": "> 10"},
      {"measurement": "PD50 (day 4)", "setting": "E. coli N99 [10]; per os", "value": 8.6},
      {"measurement": "PD50 (day 4)", "setting": "E. coli N99 [10]; subcutaneous", "value": 4.6},
      {"measurement": "PD50 (day 4)", "setting": "S. aureus 601055; per os", "value": 20},
      {"measurement": "PD50 (day 4)", "setting": "S. aureus 601055; subcutaneous", "value": 20},
      {"measurement": "zone of inhibition at 0.025 µg/disc", "setting": "E. coli N99 [11]; 0.025 μg applied on to disc, 16 hours at 37° C., read-out: mm diameter zones of inhibition vs. E. coli N99", "value": 0, "unit": "mm"},
      {"measurement": "zone of inhibition at 0.05 µg/disc", "setting": "E. coli N99 [11]; 0.05 μg applied on to disc, 16 hours at 37° C., hazy, read-out: mm diameter zones of inhibition vs. E. coli N99", "value": 10, "unit": "mm"},
      {"measurement": "zone of inhibition at 1.5 µg/disc", "setting": "E. coli N99 [11]; [14]", "value": 29, "unit": "mm"},
      {"measurement": "zone of inhibition at 1.5 µg/disc", "setting": "E. coli N99 [11]; 16 hours at 37° C., inner clear, read-out: mm diameter zones of inhibition vs. E. coli N99, inner clear zone", "value": 23, "unit": "mm"},
      {"measurement": "PD50 (day 4)", "setting": "S. dublin 369001; per os", "value": 50},
      {"measurement": "PD50 (day 4)", "setting": "S. dublin 369001; subcutaneous", "value": 20},
      {"measurement": "PD50 (day 4)", "setting": "E. coli 341094; per os", "value": 13.4},
      {"measurement": "PD50 (day 4)", "setting": "E. coli 341094; subcutaneous", "value": 23.2}
    ]},
    {"smiles": "O=C(O)C1=C[C@@H](O)[C@@H](O)[C@H](O)[C@@H]1F", "note": "[6-β-fluoroshikimate, (3R,4R,5S,6R)6-β-Fluoroshikimic acid]", "values": [
      {"measurement": "zone of inhibition at 1.5 µg/disc", "setting": "E. coli N99 [11]; [14]", "value": 0, "unit": "mm"},
      {"measurement": "zone of inhibition at 3 µg/disc", "setting": "E. coli N99 [11]; 3.0 μg applied on to disc, 16 hours at 37° C., very hazy, read-out: mm diameter zones of inhibition vs. E. coli N99", "value": 13, "unit": "mm"},
      {"measurement": "zone of inhibition at 30 µg/disc", "setting": "E. coli N99 [11]; 30.0 μg applied on to disc, 16 hours at 37° C., very hazy, read-out: mm diameter zones of inhibition vs. E. coli N99", "value": 26, "unit": "mm"}
    ]},
    {"smiles": "N[C@@H](Cc1ccccc1)C(=O)O", "note": "[L-Phenyl alanine]", "values": [
      {"measurement": "Effect on the E. coli N99 inhibited growth", "setting": "E. coli N99 [12]", "value": "No reversion"}
    ]},
    {"smiles": "N[C@@H](Cc1c[nH]c2ccccc12)C(=O)O", "note": "[L-tryptophan]", "values": [
      {"measurement": "Effect on the E. coli N99 inhibited growth", "setting": "E. coli N99 [12]", "value": "No reversion"}
    ]},
    {"smiles": "N[C@@H](Cc1ccc(O)cc1)C(=O)O", "note": "[L-tyrosine]", "values": [
      {"measurement": "Effect on the E. coli N99 inhibited growth", "setting": "E. coli N99 [12]", "value": "No reversion"}
    ]},
    {"smiles": "Nc1ccc(C(=O)O)cc1", "note": "[PABA, paraaminobenzoic acid]", "values": [
      {"measurement": "Inhibition of bacterial growth reversed", "setting": "E. coli N99 [12]; Absorbance 540 nm", "value": "reversed"}
    ]},
    {"smiles": "O=C(O)CNCP(=O)(O)O", "note": "[glyphosate]", "values": [
      {"measurement": "activity in the standard carrot cell test", "setting": "carrot cells [13]", "value": "active"}
    ]}
  ]
}
